The source of these data is article PMC6637691, “Phenothiazinium Dyes Are Active against Trypanosoma cruzi In Vitro” (BioMed Research International, 2019).

In series [1] the test system is T. cruzi amastigotes. In words: Amastigote growth inhibition assay (T. cruzi-LacZ, CPRG readout). Format: cell-based. The conditions noted are these: Trypanosoma cruzi, LLC-MK2, amastigotes in LLCMK2 cells, 72 h, 37°C, three independent assays. Here is the method: T. cruzi (Tulahuen strain) was maintained in cultures of LLCMK2 cells and cultivated in RMPI supplemented with 10% fetal bovine serum (FBS) at 37°C, 5% CO2. The parasites used in proliferation and flow cytometry assays were genetically modified to express the enzyme β-galactosidase (T. cruzi-LacZ [9]). To illustrate the inhibition of parasite proliferation, a T. cruzi expressing GFP (G-GFP strain [10]) was used.
(§1) LLCMK2 cells were distributed in 96-well plates (5×10^4 cells/ml) and infected with T. cruzi-LacZ at a multiplicity of infection (MOI) of 10:1 (5×10^5 cells/ml). The cultures were incubated for 48 h, 37°C, and 5% CO2 and washed with phosphate buffered saline (PBS). Serial dilutions of compounds (starting from 10 μM) in RPMI were added to the cultures in duplicate and incubated for 72 h, 37°C,and 5% CO2. […] After incubation, the media were removed and followed by the reaction with chlorophenol red-β-D-galactopyranoside (CPRG) buffer (200 μM CPRG, 2% Trion X-100, and 50 mM MgCl2 in PBS) for 4 h, 37°C. The plates were read at 570 nm in ELISA reader (Synergy™ H1, Biotek). Three independent assays were performed.
(§2) The percentages of proliferation and cytotoxicity were calculated using the mean absorbance of the compound-free control and the absorbance of each treatment. The IC50 and the combination index (CI) were achieved using Compusyn software (http://www.combosyn.com/) and the selective index (CC50/IC50) was also determined. From CI values, synergistic (CI < 1), and antagonistic (CI > 1) interactions were identified. For oxidative stress and mitochondrial activity, data were analyzed by one-way ANOVA followed by a Dunnett's post hoc test (compared to nontreated groups) on GraphPad 5.0 software.

Series [2] is described as follows: Cytotoxicity (MTT assay). Format: cell-based. To be noted: rhesus monkey; LLCMK2 cells, 72 h, MTT assay. The protocol: (§3) The cytotoxic effects of the phenothiazinium dyes in LLCMK2 cells was measured by Thiazolyl Blue Tetrazolium Bromide (MTT) assay, as described in [12]. A suspension of LLCMK2 cells (5 × 10^4/ml) in RPMI supplemented with 10% FBS was distributed in 96-well plates and cultivated (37°C, 5% CO2) to the confluence. […] The cultures were incubated for 72 h, 37°C, and 5% CO2. For the measurement of the […], the media were carefully removed and an MTT solution (500 μg/ml MTT in PBS) was added. The reaction was performed for 4 h at 37°C, 5% CO2. After the reaction, the MTT solution was discarded and the formazan crystals solubilized with DMSO. The absorbance was measured in an ELISA reader (Synergy™ H1, Biotek) at 570 nm. The percentages of proliferation and cytotoxicity were calculated using the mean absorbance of the compound-free control and the absorbance of each treatment. The IC50 and the combination index (CI) were achieved using Compusyn software (http://www.combosyn.com/) and the selective index (CC50/IC50) was also determined. […] For oxidative stress and mitochondrial activity, data were analyzed by one-way ANOVA followed by a Dunnett's post hoc test (compared to nontreated groups) on GraphPad 5.0 software.
(In general: Formazan colour is commonly taken as a measure of viable cells.)

The subject of series [3] is LLCMK2 cells. In words: Cytotoxicity (MTT assay). The class given is cell-based. To be noted: CC50 LLCMK2 / IC50 amastigotes. Here is the method: as §3
Series [4] concerns T. cruzi amastigotes. Kind of series: Drug combination assay against amastigotes (CPRG, Compusyn). The class given is cell-based. To be noted: Trypanosoma cruzi. Here is the method: as §1, §2
As references, isolated compounds of each combination were evaluated concomitantly in the same plate. The inhibition percentage was calculated in comparison to the nontreated group and the IC50 and CI values were achieved using Compusyn software.

For series [5], the system named is T. cruzi trypomastigotes. Kind of series: ROS measurement (DCFDA, flow cytometry) in trypomastigotes. Format: cell-based, Trypanosoma cruzi. To be noted: 4 × IC50, 2 h. The protocol:
(§4) LLCMK2 cells in 75 cm^2 flasks were cultivated to confluence and were infected with 1 × 10^7 T. cruzi trypomastigotes. […] The infected cells were centrifuged for 10 min, 3000 g, and washed with PBS and suspended in trypsin to separate cells and parasites. The cultures were distributed in 1.5 ml microtubes (~ 1 × 10^6 trypomastigotes/tube) and incubated with 4 × IC50 of compounds at 37°C, 5% CO2 for 2 h. Menadione (MN), a classic inducer of cellular oxidative stress, was used as the positive control of ROS production as previously described in [14]. After treatment, the cultures were centrifuged for 10 minutes, 3000 g, and washed with PBS and suspended in trypsin. […] Similarly, the mitochondrial membrane potential was determined after incubation with 5 μM JC-1 under the same conditions. […] In polarized mitochondria, the dye forms J-aggregates, emitting red fluorescence. The cultures were washed with PBS and analyzed in a BD FACS-Canto (BD Biosciences) flow cytometer with the FACSDiva (BD) 6.1.3 software. Due to the size, host cells (infected and noninfected) and trypomastigotes were separately analyzed by flow cytometry. The median of fluorescence of oxidized DCF and the populations with active mitochondria were measured with excitation/emission at 488 nm/529 nm and […]. […]
(In general: Flow cytometry measures light scatter and fluorescence of single cells or particles in a stream.)

Series [6] has as its system noninfected LLCMK2 cells. Kind of series: ROS measurement (DCFDA, flow cytometry) in noninfected cells. The class given is cell-based. The conditions noted are these: 4 × IC50, 2 h. The protocol: as §4
The test system of series [7] is T. cruzi trypomastigotes. Kind of series: Mitochondrial membrane potential (JC-1, flow cytometry) in trypomastigotes. The class given is cell-based, Trypanosoma cruzi. To be noted: 4 × IC50, 2 h. The protocol: as §4
[8] abbreviates: 72 h, read-out: IC50 (compound 1), compound 1 alone, evaluated in the same plate as the combination.
The mark [9] stands for this setting: 72 h, compound 2 alone, evaluated in the same plate as the combination, read-out: IC50 (compound 2).

As usually defined, the IC50 is the concentration needed to halve the response being measured. The CC50 is the concentration giving 50% cytotoxicity. On to `O=C(Cn1ccnc1[N+](=O)[O-])NCc1ccccc1` [BZ, Benznidazole], for which the IC50 in series [1] worked out at 3410 ± 380 nM; in series [4] (setting [8]), 3320 nM. The CC50 at 72 h in series [2] is over 200000 nM. For the same compound, in series [3], the “SI (selectivity index, CC50/IC50)” value is on record as over 58.65. Further, the “ROS production in trypomastigotes” value in series [5] was “no ROS production was detected”. Moreover, the “ROS production in noninfected cells” value in series [6] is “increased ROS production”. In addition, the “Mitochondrial membrane potential in trypomastigotes” value in series [7] is recorded as “did not affect mitochondria”.

Regarding `Cc1cc(N(C)C)cc2[s+]c3cc(N(C)C)cc(C)c3nc12` [DMMB, 1,9–Dimethyl Methylene Blue], the values for the IC50 in series [1] and in series [4] (setting [9]) were 80 ± 20 nM and 71 nM, respectively. In addition, the CC50 at 72 h in series [2] stood at 4460 ± 230 nM. Besides, the “SI (selectivity index, CC50/IC50)” value in series [3] is reported as 51.26.

As for `CN(C)c1ccc2nc3ccc(=[N+](C)C)cc-3sc2c1` [MB, Methylene Blue], the IC50 worked out at 440 ± 150 nM in series [1]; 560 nM in series [4] (72 h, compound 1 alone, evaluated in the same plate as the combination, read-out: IC50 (compound 1)); 477 nM in series [4] (setting [9]). Further, in series [2], the CC50 at 72 h amounted to 16800 ± 1180 nM. For the same compound, in series [3], the “SI (selectivity index, CC50/IC50)” value was 37.40.

On to `CC1=CC(=O)c2ccccc2C1=O` [MN, Menadione], for which the “ROS production in trypomastigotes” value in series [5] was “increased ROS production”. Also, the “ROS production in noninfected cells” value in series [6] is “increased ROS production”. Moreover, the “Mitochondrial membrane potential in trypomastigotes” value in series [7] was “reduced the membrane potential”.

On to `CCNc1cc2[s+]c3cc(NCC)c(C)cc3nc2cc1C` [NMB, New Methylene Blue], for which the IC50 in series [1] was determined as 90 ± 10 nM; in series [4] (setting [9]), 100 nM; in series [4] (setting [8]), 122 nM. Besides, the CC50 at 72 h in series [2] turned out to be 4190 ± 1300 nM. The “SI (selectivity index, CC50/IC50)” value in series [3] is recorded as 44.71.

In the case of `Cc1cc2nc3ccc(N(C)C)cc3[s+]c2cc1N` [TBO, Toluidine Blue O], the IC50 in series [1] was 270 ± 110 nM; in series [4] (setting [8]), 381 nM; in series [4] (72 h, read-out: IC50 (compound 2), compound 2 alone, evaluated in the same plate as the combination), 322 nM; in series [4] (read-out: IC50 (compound 2), compound 2 alone, evaluated in the same plate as the combination), 322 nM. Further, the CC50 at 72 h in series [2] amounted to 7930 ± 5220 nM. Moreover, the “SI (selectivity index, CC50/IC50)” value in series [3] is reported as 28.61.
